ChEMBL document CHEMBL3228010, “Potential antitumor agents. 29. Quantitative structure-activity relationships for the antileukemic bisquaternary ammonium heterocycles” (J Med Chem, 1979)
Where “and” joins values, the source holds several entries; their conditions need not be identical. Equal entries are not always repeated.

Legend:
[1] = Displacement of ethidium from poly[d(A-T)]-poly[d(A-T)] DNA by fluorimetric method
[2] = Lipophilic-hydrophilic balance, Rm of the compound by partition chromatography; format: physicochemical
[3] = system: Mus musculus; test: Toxicity in ip dosed C3H X DBA2 F1 hybrid mouse […] with mouse L1210 cells on day 0 and dosed once daily on days 1 to 5 measured after 50 days; format: organism-based; conditions: in vivo, 1200 h
[4] = Displacement of ethidium from poly[d(G-C)]-poly[d(G-C)] DNA (unknown origin) by fluorimetric method
[5] = system: L1210; test: Antitumor activity against mouse L1210 cells […] in ip dosed C3H X DBA2 F1 hybrid mouse on day 0 and dosed at LD10 level once daily on days 1 to 5 assessed as increase in life span relative to control; format: functional
[6] = species: Bos taurus; test: Displacement of ethidium from calf thymus DNA by fluorimetric method
[7] = system: L1210; test: Antitumor activity against mouse L1210 cells […] in ip dosed C3H X DBA2 F1 hybrid mouse on day 0 and dosed once daily on days 1 to 5 assessed as increase in life span relative to control; format: functional

SMILES | C50 [1] | Rm [2] | LD10 [3] | C50 [4] | log(ILSmax) [5] | C50 [6] | D40 [7]
C[n+]1ccc(Nc2ccc(C(=O)Nc3ccc(Nc4cc[n+](C)c5ccccc45)cc3N)cc2)cc1.[Br-].[Br-] | 0.64 µM | 0.35 | 7 mg/kg | 2.05 µM | <1.4 | 1.87 µM | 
Cc1cc(C(=O)Nc2ccc(C(=O)Nc3ccc[n+](C)c3)cc2)c(C)cc1C(=O)Nc1ccc(C(=O)Nc2ccc[n+](C)c2)cc1.Cc1ccc(S(=O)(=O)[O-])cc1.Cc1ccc(S(=O)(=O)[O-])cc1 | 8.1 µM | 0.48 | 1.7 mg/kg | 14 µM | 1.43 | 7.8 µM | 
Cc1c[n+](C)c2ccccc2c1Nc1ccc(C(=O)Nc2ccc(Nc3cc[n+](C)cc3)cc2)cc1.[Br-].[Br-] | 4.5 µM | 0.6 | 5 mg/kg | 15 µM | <1.4 | 4.9 µM | 
CCC[n+]1ccccc1-c1ccc(NC(=O)c2ccc(C(=O)Nc3ccc(-c4cccc[n+]4CCC)cc3)cc2)cc1.Cc1ccc(S(=O)(=O)[O-])cc1.Cc1ccc(S(=O)(=O)[O-])cc1 | 0.83 µM | 0.4 | 11 mg/kg | 2.9 µM | <1.4 | 2.2 µM | 
C[n+]1ccc(Nc2ccc(NC(=O)c3ccc(C(=O)Nc4ccc(C(=O)Nc5ccc[n+](C)c5)cc4)cc3)cc2)cc1 | 0.34 µM and 0.44 µM |  |  | 0.97 µM and 1.35 µM |  | 0.63 µM and 0.84 µM | 
C[n+]1cccc(NC(=O)c2ccc(NC(=O)c3ccc(C(=O)Nc4ccc(C(=O)Nc5ccc[n+](C)c5)c(Cl)c4)cc3)cc2Cl)c1.Cc1ccc(S(=O)(=O)[O-])cc1.Cc1ccc(S(=O)(=O)[O-])cc1 | 0.99 µM | 0.2 | 26 mg/kg | 2.1 µM | <1.4 | 1.4 µM | 
CCCC[n+]1ccc(Nc2ccc(NC(=O)c3ccc(Nc4cc[n+](CCCC)c5ccccc45)cc3)cc2)cc1.[Br-].[Br-] | 0.19 µM | 1.14 | 11 mg/kg | 2.8 µM | <1.4 | 2.1 µM | 
C/C(=C(/C)c1ccc(Nc2cc[n+](C)c3ccc(N)cc23)cc1)c1ccc(Nc2cc[n+](C)cc2)cc1.[Cl-].[Cl-] | 0.9 µM | 0.96 | 5.5 mg/kg | 2.6 µM | 1.53 | 1.7 µM | 
Cn1cc(NC(=O)c2cc(NC(=O)c3cc(NC=O)cn3C)cn2C)cc1C(=O)NCCC(=N)N | 0.07 µM |  |  | 2.4 µM |  | 0.68 µM | 
Cc1cc(Nc2ccc(NC(=O)c3ccc(C(=O)Nc4ccc(C(=O)Nc5ccc[n+](C)c5)cc4)cc3)cc2)nc(N)[n+]1C.[I-].[I-] | 0.26 µM | -0.6 | 20 mg/kg | 0.49 µM | <1.4 | 0.4 µM | 
CCCCC[n+]1cccc(NC(=O)c2ccc(NC(=O)c3ccc(C(=O)Nc4ccc(C(=O)Nc5ccc[n+](CCCCC)c5)cc4)cc3)cc2)c1.Cc1ccc(S(=O)(=O)[O-])cc1.Cc1ccc(S(=O)(=O)[O-])cc1 | 0.42 µM | 0.9 | 70 mg/kg | 0.92 µM | <1.4 | 0.38 µM | 
C[n+]1ccc(Nc2ccc(NC(=O)CCCCCCC(=O)Nc3ccc(Nc4cc[n+](C)cc4)cc3)cc2)cc1.[Br-].[Br-] | 20 µM | 0.59 | 30 mg/kg | 75 µM | <1.4 | 40 µM | 
C[n+]1ccc(Nc2ccc(NC(=O)CCCCCC(=O)Nc3ccc(Nc4cc[n+](C)cc4)cc3)cc2)cc1.[Br-].[Br-] | 22 µM | 0.49 | 30 mg/kg | 77 µM | <1.4 | 42 µM | 
C[n+]1ccc(Nc2ccc(NC(=O)c3ccc(Nc4nc[n+](C)c5ccc(N)cc45)cc3)cc2)cc1.Cc1ccc(S(=O)(=O)[O-])cc1.Cc1ccc(S(=O)(=O)[O-])cc1 | 0.5 µM | 0.13 | 3 mg/kg | 1.7 µM | <1.4 | 0.88 µM | 
CC[n+]1ccc(Nc2ccc(C(=O)Nc3ccc(Nc4cc[n+](CC)c5ccccc45)cc3)cc2)cc1.[Br-].[Br-] |  | 0.45 | 10 mg/kg |  | 2.16 |  | 0.6 mg/kg
CCC[n+]1ccc(Nc2ccc(C(=O)Nc3ccc(/C(C)=N/NC(=N)N)cc3)c(N)c2)c2cc(N)ccc21.Cc1ccc(S(=O)(=O)O)cc1.Cc1ccc(S(=O)(=O)[O-])cc1 |  | 0.07 | 60 mg/kg |  | 2.2 |  | 10 mg/kg
CC[n+]1cccc(-c2ccc(NC(=O)/C=C/c3ccc(C(=O)Nc4ccc(-c5ccc(-c6ccc(-c7ccc[n+](CC)c7)cc6)cc5)cc4)cc3)cc2)c1.Cc1ccc(S(=O)(=O)[O-])cc1.Cc1ccc(S(=O)(=O)[O-])cc1 |  | -0.3 | 60 mg/kg |  | 2.25 |  | 5.2 mg/kg
CCCC[n+]1cccc2cc(NC(=O)c3ccc(C(=O)Nc4ccc5c(ccc[n+]5CCCC)c4)nc3)ccc21.Cc1ccc(S(=O)(=O)[O-])cc1.Cc1ccc(S(=O)(=O)[O-])cc1 |  | 0.31 | 175 mg/kg |  | 1.87 |  | 120 mg/kg
CCC[n+]1ccc(-c2ccc(NC(=O)c3ccc(Nc4cc[n+](CCC)c5ccccc45)cc3)cc2)cc1.[Br-].[Br-] |  | 0.8 | 4.8 mg/kg |  | 1.6 |  | 4.8 mg/kg
CCC[n+]1ccc(Nc2ccc(NC(=O)c3ccc(C(=O)Nc4ccc(Nc5cc[n+](CCC)cc5)cc4)cc3)cc2)cc1.Cc1ccc(S(=O)(=O)[O-])cc1.Cc1ccc(S(=O)(=O)[O-])cc1 |  | 0.81 | 4.1 mg/kg |  | 1.99 |  | 0.6 mg/kg
CC[n+]1ccc(Nc2ccc(NC(=O)/C=C/c3ccc(/C=C/C(=O)Nc4ccc(Nc5cc[n+](CC)cc5)cc4)cc3)cc2)cc1.Cc1ccc(S(=O)(=O)[O-])cc1.Cc1ccc(S(=O)(=O)[O-])cc1 |  | -0.05 | 32 mg/kg |  | 1.88 |  | 9 mg/kg
CC[n+]1ccc(Nc2ccc(NC(=O)c3ccc(Nc4cc[n+](CC)c5ccc(N)cc45)cc3N)cc2)cc1.[I-].[I-] |  | 0.37 | 17 mg/kg |  | 2.33 |  | 1.4 mg/kg
CC[n+]1ccc(Nc2ccc(NC(=O)c3ccc(Nc4cc[n+](CC)c5ccccc45)cc3N)cc2)cc1.[I-].[I-] |  | 0.65 | 53 mg/kg |  | 1.95 |  | 11.9 mg/kg
CCC[n+]1ccc(Nc2ccc(NC(=O)c3ccc(Nc4cc[n+](CCC)c5ccc(N)cc45)cc3N)cc2)cc1.[I-].[I-] |  | 0.52 | 20 mg/kg |  | 2.03 |  | 5.9 mg/kg
CC[n+]1ccc(Nc2ccc(NC(=O)c3ccc(C(=O)Nc4ccc(Nc5cc[n+](CC)cc5)cc4)cc3)cc2)cc1.Cc1ccc(S(=O)(=O)[O-])cc1.Cc1ccc(S(=O)(=O)[O-])cc1 |  | 0.46 | 2.5 mg/kg |  | 2.24 |  | 0.5 mg/kg
C[n+]1cccc(NC(=O)c2ccc(NC(=O)c3ccc(C(=O)Nc4ccc5c(ccc[n+]5C)c4)cc3)cc2)c1.Cc1ccc(S(=O)(=O)[O-])cc1.Cc1ccc(S(=O)(=O)[O-])cc1 |  | -0.25 | 27 mg/kg |  | 2.03 |  | 12 mg/kg
CCCC[n+]1cccc2cc(NC(=O)c3ccc(-c4ccc(-c5ccc(-c6ccc(C(=O)Nc7ccc8c(ccc[n+]8CCCC)c7)cc6)cc5)cc4)cc3)ccc21.Cc1ccc(S(=O)(=O)[O-])cc1.Cc1ccc(S(=O)(=O)[O-])cc1 |  | 0.74 | 57 mg/kg |  | 1.73 |  | 15 mg/kg
